Tests used:
[1] = test system: placental tissues of P.g.-infected mice; experiment: Histological and immunohistochemical observation of placental tissues at gestational age of 17 days; assay type: in vivo, mouse; conditions: placenta at gestational age of 17 days; P.g./N-Lac group vs P.g. group
Experimental: Immunohistochemical staining was performed in a conventional manner. As PMNL markers, MCA771GA (rat anti-neutrophils antibody, purchased from AbD Serotec (Raleigh, N.C., USA), 1:5000), rabbit monoclonal anti-COX-2 antibody (purchased from Cell Signaling Technology (Danvers, Mass., USA), 1:100), goat anti-TNF-α antibody (purchased from Santa Cruz Biotechnology, Inc. (Santa Cruz, Calif., USA), 1:50), and rat anti-galectin-3 antibody (purchased from BioLegend, Inc (San Diego, Calif., USA), 1:500) were used. A high polymer method (Histofine Max-PO; Nichirei Biosciences) was used for immunohistochemical staining of the markers. Specificity of the antibodies was ascertained by substituting PBS/serum for each antibody.
8-wks-old female C57Bl/6J mice were infected with P.g. w83 strain via the pulp chambers of the first molars. After periapical granuloma, which serves as a persistent source of P.g., was established at 6wks post-infection, mating was started (P.g. group). A half of the mice in P.g. group was intraperitoneally administered with 5 mg/kg of N-Lac (Sigma-Aldrich) at the gestational ages of 12, 15 and 18 days (P.g./N-Lac group). Healthy pregnant mice without P.g. infection were used as a control (NC group). The gestational period was compared among the groups. […]

[2] = test system: HTR-8 cells; experiment: Effect of Gal-3 inhibitor on human placenta cell line stimulated with P.g.-LPS (Western-blotting); assay type: cell-based
Experimental: Human trophoblast cell line—HTR-8/Svneo cells were kindly gifted from Prof. Charles H. Graham (Queen's University, Canada). The cells were grown in RPMI 1640 media (Nissui Pharmaceutical Co., Tokyo, Japan) supplemented with 10% heat-inactivated FBS (Invitrogen) and 100 Uml penicillin-streptomycin (Gibco, Tokyo, Japan). For the experiments, cells were seeded at a density of 5×10^5 cells in 35 mm culture dishes. The cells were maintained at 37° C. in a normal atmosphere containing 5% CO2. The cells were stimulated by 1 μg/ml of P.g.-LPS (Invivogen, SanDiego, Calif., USA), expression of Gal-3 mRNA and Gal-3 levels in the culture media were measured at one, two, or three days after the stimulation.
HTR-8 cells were stimulated with P.g.-LPS (1 μg/ml) and N-Lac (10^−9 M and 10^−8 M), and the expression levels of Gal-3, TNF-α, COX-2 and IL-8 in the culture supernatants were measured by RT-PCR and Western-blotting.

[3] = test system: C57Bl/6J mice infected with P.g. w83 strain; experiment: Effect of Gal-3 inhibitor on preterm birth induced by dental infection of P.g. (gestational period); assay type: in vivo, mouse; conditions: 5 mg/kg N-Lac intraperitoneally at gestational ages of 12, 15 and 18 days
Experimental: Effect of a Gal-3 inhibitor, N-acetyllactosamine (N-Lac), on preterm birth induced by dental infection of P.g. was studied.
8-wks-old female C57Bl/6J mice were infected with P.g. w83 strain via the pulp chambers of the first molars. After periapical granuloma, which serves as a persistent source of P.g., was established at 6wks post-infection, mating was started (P.g. group). A half of the mice in P.g. group was intraperitoneally administered with 5 mg/kg of N-Lac (Sigma-Aldrich) at the gestational ages of 12, 15 and 18 days (P.g./N-Lac group). Healthy pregnant mice without P.g. infection were used as a control (NC group). The gestational period was compared among the groups. At the gestational age of 17 days the placental tissues were harvested, and inflammatory cell infiltration (MΦ, neutrophils), damage of endothelial cells (CD31), and immunolocalization of factors promoting delivery (TNF-α, COX-2, and Gal-3) were compared among the groups.

[4] = test system: HTR-8 cells; experiment: TNF-α stimulation of HTR-8 cells, Gal-3 production; assay type: cell-based, human; conditions: 10 ng/ml rhTNF-α; 2 days post-stimulation; P<0.01
Experimental: Gal-3 protein levels in the cell culture supernatants were analyzed by Human Galectin-3 Immunoassay (R&D Systems) as the manufacturer recommended. Statistical differences among the experimental groups were evaluated by analysis of T test using GraphPad Prism (version 6.0c, CA, USA) with the level of significance set at P<0.01**.
Effect of TNF-α, which is produced by P.g.-LPS stimulation, on Gal-3 production was studied.
Recombinant human TNF-α (rhTNF-α, purchased from R&D Systems (Minneapolis, Minn., USA)) was applied at 10 ng/ml to HTR-8 cells for 1, 2 or 3 days and the Gal-3 protein levels in the culture media were measured. The cell culture and measurement of the Gal-3 protein levels were performed in the same manner as in Example 6.

[5] = P.g.-LPS 1 μg/ml and N-Lac (10^−9 M and 10^−8 M)

Compound	decrease of CD31 and expression of TNF-α, COX-2 and Gal-3 in placenta [1]	denature and detachment of the amnion membrane, denature and necrosis of the placenta, increase of inflammatory cell infiltration [1]	Gal-3 expression upregulated by the P.g.-LPS stimulation [2, 5]	TNF-α expression upregulated by the P.g.-LPS stimulation [2, 5]	expression of TNF-α ([2]; incubation with N-Lac (10^−9 M and 10^−8 M))	preterm birth induced by P.g. ([3]; p<0.05)	average gestational period ([3]; P.g./N-Lac group, NC 20, P.g. 18.3) [days]	Gal-3 protein level in culture media [4]
CC(=O)N[C@H]1C(O)O[C@H](CO)[C@@H](O[C@@H]2O[C@H](CO)[C@H](O)[C@H](O)[C@H]2O)[C@@H]1O (some centres unmarked) [N-Lac, N-acetyllactosamine]	improved	not observed	remarkably reduced	remarkably reduced	suppressed	significantly suppressed preterm birth	20.7	–
TNF-α	–	–	–	–	–	–	–	significant increased
